Assay results: patent publication US12171756B2, “NLRP3 modulators” (Innate Tumor Immunity, Inc., priority 2017, dated 2024)

Experiments:
human TLR7 = target: T1, human TLR7 (Homo sapiens, UniProt Q9NYK1); assay: In vitro human TLR7 binding reporter assay (HEK-Blue, NF-kB/AP1-inducible SEAP); type: cell-based; conditions: HEK-Blue human TLR7 SEAP reporter cells; activity range classes; read-out: TLR7 Agonist EC50
T1 construct: host or cells: human HEK-Blue cells (HEK293-derived) co-expressing TLR7 and an NF-kB/AP1-inducible SEAP reporter
T1 sequence (Q9NYK1 27-1049): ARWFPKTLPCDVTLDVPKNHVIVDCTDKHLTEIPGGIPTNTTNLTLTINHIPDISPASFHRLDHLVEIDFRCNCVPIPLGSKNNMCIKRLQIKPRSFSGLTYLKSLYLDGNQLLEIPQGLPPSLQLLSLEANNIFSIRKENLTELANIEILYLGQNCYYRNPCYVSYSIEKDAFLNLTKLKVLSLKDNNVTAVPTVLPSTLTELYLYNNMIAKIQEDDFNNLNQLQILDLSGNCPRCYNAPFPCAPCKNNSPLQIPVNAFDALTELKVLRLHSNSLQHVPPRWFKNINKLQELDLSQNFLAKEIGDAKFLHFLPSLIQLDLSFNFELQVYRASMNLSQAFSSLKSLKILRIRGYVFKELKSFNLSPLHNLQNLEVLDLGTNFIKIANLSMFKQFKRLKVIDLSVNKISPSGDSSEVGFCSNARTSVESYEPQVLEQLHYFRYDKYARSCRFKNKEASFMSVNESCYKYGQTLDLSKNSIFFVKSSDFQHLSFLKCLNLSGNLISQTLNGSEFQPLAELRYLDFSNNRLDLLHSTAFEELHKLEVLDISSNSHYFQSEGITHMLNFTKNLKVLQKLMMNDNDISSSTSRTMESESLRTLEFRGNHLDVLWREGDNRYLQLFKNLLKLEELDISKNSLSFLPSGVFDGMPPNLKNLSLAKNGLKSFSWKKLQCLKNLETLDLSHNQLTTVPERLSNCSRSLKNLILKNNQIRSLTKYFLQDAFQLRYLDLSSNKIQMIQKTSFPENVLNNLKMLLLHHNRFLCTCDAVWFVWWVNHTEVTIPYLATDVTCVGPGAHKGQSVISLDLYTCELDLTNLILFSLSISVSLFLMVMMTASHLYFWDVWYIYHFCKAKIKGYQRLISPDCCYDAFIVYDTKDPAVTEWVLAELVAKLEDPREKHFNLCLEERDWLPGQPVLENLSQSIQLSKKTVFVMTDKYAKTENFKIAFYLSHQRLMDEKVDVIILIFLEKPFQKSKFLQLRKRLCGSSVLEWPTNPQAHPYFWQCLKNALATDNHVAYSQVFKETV
Experimental: (§1) In Vitro Human TLR7 and TLR8 Binding Reporter Assays
(§2) Logarithmically-growing human HEK-Blue cells co-expressing a TLR7 or TLR8 gene and a NF-kB/AP1-inducible SEAP (secreted embryonic alkaline phosphatase; Invivogen, San Diego, CA) reporter gene are added to individual wells of a 384-well plate (15,000 cells per 20 μL per well) and maintained for 24 h at 37° C., 5% CO2. Test compounds or DMSO are distributed to separate wells the next day using acoustic liquid handling technology (100 nL per well) and cells are subsequently incubated for 18 h at 37° C., 5% CO2. Cellular SEAP production is measured using an Envision plate reader instrument thirty minutes after adding freshly-made Quanti-Blue reagent (prepared by following manufacturer instructions; Invivogen, San Diego, CA) to the HEK-Blue TLR Nf-kB-SEAP cell reactions. All EC50 values (half-maximal effective concentration) are determined using proprietary data analysis software. Normalized EC50 value=absolute value determined by setting 100% Ymax using a reference standard RLU (relative light unit) values from cells treated with 50 μM of the reference standard.

[1] = tested on: IL-1β production in PMA-differentiated THP-1 cells; assay: Measurement of IL-1β production in PMA-differentiated THP-1 cells (ELISA, 4 hours); type: cell-based, human; conditions: Homo sapiens, THP-1, human IL-1β production, assayed using one or more of the described procedures, read-out: NLRP3 hIL1B IC50
Experimental: Measurement of IL-1β Production in PMA-Differentiated THP-1 Cells THP-1 cells were purchased from the American Type Culture Collection and sub-cultured according to instructions from the supplier. Prior to experiments, cells were cultured in RPMI 1640 containing 10% heat inactivated FBS, penicillin (100 units/ml) and streptomycin (100 μg/ml), and maintained in log phase prior to experimental setup. Prior to the experiment THP-1 were treated with PMA (Phorbol 12-myristate 13-acetate) (10 μg/ml) for 24 hours. The day of the experiment the media was removed and attaching cells were treated with trypsin for 2 minutes, cells were then collected, washed with PBS (phosphate buffer saline), spin down, resuspended in 2% heat inactivated FBS with RPMI at a concentration of 1×10^6 cells/ml, and 100 μl was plated in a 96 well plate. Compounds were dissolved in dimethyl sulfoxide (DMSO) and added to the culture medium to achieve desired concentration (e.g. 100, 30, 10, 3, 1, 0.3 or 0.1 μM). Cells were incubated with compounds for 4 hours. Cell free supernatant was collected and the production of IL-1β was evaluated by ELISA. A vehicle only control was run concurrently with each experiment. Final DMSO concentration was 1%.

human TLR8 = target: T2, human TLR8 (Homo sapiens, UniProt Q9NR97); assay: In vitro human TLR8 binding reporter assay (HEK-Blue, NF-kB/AP1-inducible SEAP); type: cell-based; conditions: HEK-Blue human TLR8 SEAP reporter cells; activity range classes; read-out: TLR8 Agonist EC50
T2 construct: host or cells: human HEK-Blue cells (HEK293-derived) co-expressing TLR8 and an NF-kB/AP1-inducible SEAP reporter
T2 sequence (Q9NR97 27-1041): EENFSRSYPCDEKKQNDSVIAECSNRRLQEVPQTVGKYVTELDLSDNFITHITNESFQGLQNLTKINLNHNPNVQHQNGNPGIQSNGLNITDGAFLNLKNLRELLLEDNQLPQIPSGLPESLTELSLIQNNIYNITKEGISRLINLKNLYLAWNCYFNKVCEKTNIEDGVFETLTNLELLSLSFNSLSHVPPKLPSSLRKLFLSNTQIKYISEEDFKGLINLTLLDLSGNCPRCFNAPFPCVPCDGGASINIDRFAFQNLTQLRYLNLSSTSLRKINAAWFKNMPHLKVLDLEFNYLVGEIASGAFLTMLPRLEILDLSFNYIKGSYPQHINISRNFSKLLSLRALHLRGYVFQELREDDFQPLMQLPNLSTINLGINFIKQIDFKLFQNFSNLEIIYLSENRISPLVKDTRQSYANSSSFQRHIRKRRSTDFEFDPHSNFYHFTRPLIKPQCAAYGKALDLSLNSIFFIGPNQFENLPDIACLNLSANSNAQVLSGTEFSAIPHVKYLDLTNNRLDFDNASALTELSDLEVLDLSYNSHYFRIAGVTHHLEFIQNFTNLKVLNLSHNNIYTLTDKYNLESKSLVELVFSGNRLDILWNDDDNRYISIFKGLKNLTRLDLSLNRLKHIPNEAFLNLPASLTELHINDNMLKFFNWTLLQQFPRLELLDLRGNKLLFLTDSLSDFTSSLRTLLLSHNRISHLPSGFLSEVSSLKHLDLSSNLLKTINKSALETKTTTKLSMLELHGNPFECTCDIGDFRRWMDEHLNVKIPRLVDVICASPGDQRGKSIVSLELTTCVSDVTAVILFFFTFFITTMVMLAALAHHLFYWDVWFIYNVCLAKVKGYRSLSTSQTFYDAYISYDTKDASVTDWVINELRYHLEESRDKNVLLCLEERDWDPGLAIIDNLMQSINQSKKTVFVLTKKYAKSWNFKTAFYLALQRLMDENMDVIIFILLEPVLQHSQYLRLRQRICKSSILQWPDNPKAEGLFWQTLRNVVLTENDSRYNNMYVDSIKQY
Experimental: as §1, §2

SMILES | EC50 (human TLR7) | IC50 [1] | EC50 (human TLR8)
Nc1cc(N2CCC(O)CC2)c2ccc(-c3ccn[nH]3)cc2n1 [Compound 145] | > 100 µM | 2.55 µM | > 100 µM
Nc1cc(NCCNC(=O)c2ccccc2)c2ccc(-c3ccn[nH]3)cc2n1 [Compound 146] | > 100 µM | 4.07 µM | > 100 µM
Nc1cc(NCC2(O)CC2)c2ccc(-c3ccn[nH]3)cc2n1 [Compound 147] | > 100 µM | 0.99 µM | > 100 µM
Nc1cc(NCCc2ccccn2)c2ccc(-c3ccn[nH]3)cc2n1 [Compound 151] | > 100 µM | 0.31 µM | > 100 µM
Nc1cc(NCC(O)c2ccccn2)c2ccc(-c3ccn[nH]3)cc2n1 (stereo not drawn) [Compound 155] | > 100 µM | 0.42 µM | > 100 µM
CC(=O)N[C@H]1CCN(c2cc(N)nc3cc(-c4ccn[nH]4)ccc23)C1 [Compound 158] | > 100 µM | 35.8 µM | > 100 µM
Nc1cc(N[C@H]2CCCC[C@@H]2O)c2ccc(-c3ccn[nH]3)cc2n1 [Compound 160] | > 100 µM | 2.76 µM | > 100 µM
Nc1cc(NCC(F)(F)c2ccccn2)c2ccc(-c3ccn[nH]3)cc2n1 [Compound 161] | > 100 µM | 0.15 µM | > 100 µM
Nc1cc(N[C@@H]2CCCC[C@H]2O)c2ccc(-c3ccn[nH]3)cc2n1 [Compound 162] | > 100 µM | 2.49 µM | > 100 µM
Nc1cc(N2CCc3ncccc3C2)c2ccc(-c3ccn[nH]3)cc2n1 [Compound 164] | > 100 µM | 1.91 µM | > 100 µM
C[C@@H](CO)Nc1cc(N)nc2cc(-c3ccn[nH]3)ccc12 [Compound 165] | > 100 µM | 0.47 µM | > 100 µM
CN(C)c1cc(N)nc2cc(-c3ccn[nH]3)ccc12 [Compound 166] | > 100 µM | 0.56 µM | > 100 µM
Nc1cc(-n2ccnc2)c2ccc(-c3ccn[nH]3)cc2n1 [Compound 167, 4-(1H-imidazol-1-yl)-7-(1H-pyrazol-5-yl)quinolin-2-amine] | > 100 µM | 8.33 µM | > 100 µM
Nc1cc(NCCO)c2ccc(-c3cc[nH]n3)cc2n1 [Compound 169] | > 100 µM | 1.37 µM | > 100 µM
CCN(CC)CCNc1cc(N)nc2cc(-c3ccn[nH]3)ccc12 [Compound 170] | > 100 µM | 5.82 µM | > 100 µM

The remaining lines, values ahead:

EC50 (human TLR7) | IC50 [1] | EC50 (human TLR8) | SMILES
> 100 µM | 1.64 µM | > 100 µM | Nc1cc(NCc2ccncc2)c2ccc(-c3ccn[nH]3)cc2n1 [Compound 148]
> 100 µM | 0.14 µM | > 100 µM | Nc1cc(NCc2cccnn2)c2ccc(-c3ccn[nH]3)cc2n1 [Compound 149]
> 100 µM | 0.22 µM | > 100 µM | Nc1cc(NCc2cccnc2)c2ccc(-c3ccn[nH]3)cc2n1 [Compound 150]
> 100 µM | 1.03 µM | > 100 µM | Nc1cc(NCCn2ccnc2)c2ccc(-c3ccn[nH]3)cc2n1 [Compound 152]
> 100 µM | 1.11 µM | > 100 µM | Nc1cc(NC[C@H](O)CO)c2ccc(-c3ccn[nH]3)cc2n1 [Compound 153]
> 100 µM | 0.44 µM | > 100 µM | Nc1cc(NCC(O)c2cccnc2)c2ccc(-c3ccn[nH]3)cc2n1 (stereo not drawn) [Compound 154]
> 100 µM | 0.2 µM | > 100 µM | Cc1nc(CNc2cc(N)nc3cc(-c4ccn[nH]4)ccc23)cs1 [Compound 156]
> 100 µM | 0.52 µM | > 100 µM | Nc1cc(NCc2cnc[nH]2)c2ccc(-c3ccn[nH]3)cc2n1 [Compound 159]
> 100 µM | 0.16 µM | > 100 µM | Nc1cc(NCCn2cncn2)c2ccc(-c3ccn[nH]3)cc2n1 [Compound 163]
